Reference: ChEMBL document CHEMBL3044936, “Antifeedant properties of natural products from Parthenium argentatum, P. argentatumP. tomentosum (Asteraceae) and Castela emoryi (Simaroubeaceae) against Reticulitermes flavipes” (1999)
Values after ≈ are worked out from the molar mass of the structure shown.

Tests used:
Assay type in all cases: functional
Reticulitermes flavipes [1] = assay: Antifeedant activity against Reticulitermes flavipes assessed as feeding inhibition at 2.7 ug/disk after 3 days by choice paper disk assay; settings: 72 h
Reticulitermes flavipes [2] = assay: Antifeedant activity against Reticulitermes flavipes assessed as feeding inhibition after 3 days by choice paper disk assay; settings: 72 h, read-out: ED50 (the source's name)
Reticulitermes flavipes [3] = assay: Ratio of mortality to compound consumption in Reticulitermes flavipes at 5.5 ug/disk after 10 days
Reticulitermes flavipes [4] = assay: Antifeedant activity against Reticulitermes flavipes assessed as compound consumption at 5.5 ug/disk after 10 days by no-choice paper disk assay
Reticulitermes flavipes [5] = assay: Antitermitic activity against Reticulitermes flavipes assessed as mortality at 5.5 ug/disk after 10 days by no-choice paper disk assay; settings: 240 h

| SMILES | inhibition at 2.7 µg/disc (Reticulitermes flavipes [1]) | EC50 (Reticulitermes flavipes [2]) | Ratio (Reticulitermes flavipes [3]) | Activity (Reticulitermes flavipes [4]) | mortality at 5.5 µg/disc (Reticulitermes flavipes [5]) |
| --- | --- | --- | --- | --- | --- |
| COC1=C[C@]2(C)CCC(C(C)C)=CC2=C(C)C1=O [ARGENTONE] | 70.5% | 85.7 µg/mL (≈ 348 µM) | 2 | 33% | 66% |
| COc1ccc(C(=O)O[C@H]2C/C(C)=C/CC/C(C)=C/[C@H]3[C@@H]2C3(C)C)cc1 [GUAYULIN B] | 31.9% | > 1000 µg/mL | 0 | 72% | 0% |
| CC(=O)O[C@H]1C(=O)O[C@@H]2C[C@H]3C(C)=CC(=O)[C@@H](O)[C@]3(C)[C@H]3[C@]4(O)OC[C@]32[C@@H]1[C@@H](C)[C@H]4O [HOLACANTHONE] | 39.4% | > 1000 µg/mL | 0.7 | 34% | 24% |
| CC(C)(O)[C@@H]1CC[C@](C)([C@H]2[C@@H](O)C[C@@]3(C)C4=C(CC[C@]23C)[C@@]2(C)CCC(=O)C(C)(C)[C@@H]2CC4)O1 [INCANILIN] | 30.8% | > 1000 µg/mL | 0 | 16% | 0% |
| C/C1=C\[C@H]2[C@@H]([C@@H](O)C/C(C)=C/CC1)C2(C)C [PARTHENIOL] | 46% | 490 µg/mL (≈ 2230 µM) | 1.1 | 65% | 71% |
